# pIC50: −log10 of the molar value. Structures can show the parent of a compound that is named as a salt.
# Biological target: T1, human SPNS2 (Homo sapiens, UniProt Q8IVW8)
# T1 construct: expressed in transfected cells; host or cells: Saccharomyces cerevisiae strain with forced expression of a mammalian SphK and human SPNS2
# T1 sequence (Q8IVW8 1-549): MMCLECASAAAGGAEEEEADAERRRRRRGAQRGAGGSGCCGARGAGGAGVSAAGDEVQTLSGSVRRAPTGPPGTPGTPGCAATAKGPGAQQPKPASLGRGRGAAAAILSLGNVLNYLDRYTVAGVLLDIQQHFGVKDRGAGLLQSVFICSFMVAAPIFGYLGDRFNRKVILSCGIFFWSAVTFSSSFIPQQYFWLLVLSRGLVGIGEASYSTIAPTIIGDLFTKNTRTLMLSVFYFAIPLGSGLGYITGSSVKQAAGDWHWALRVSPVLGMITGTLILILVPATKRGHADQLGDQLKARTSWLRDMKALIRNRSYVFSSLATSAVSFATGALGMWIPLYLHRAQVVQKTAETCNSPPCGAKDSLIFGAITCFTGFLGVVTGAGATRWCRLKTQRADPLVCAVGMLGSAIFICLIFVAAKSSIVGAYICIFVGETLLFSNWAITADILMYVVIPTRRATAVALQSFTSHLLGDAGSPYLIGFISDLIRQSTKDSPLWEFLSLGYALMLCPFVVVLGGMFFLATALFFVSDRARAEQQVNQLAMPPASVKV
# Experiment: S1P transporter assay: growth of S. cerevisiae strain with forced expression of a mammalian SphK and human SPNS2
# Format: cell-based
# Conditions: in vitro inhibition of SPNS2; growth of S. cerevisiae strain expressing mammalian SphK and human SPNS2; compounds as their pharmaceutical salts
# From the text: Transporter assays are vectorial and, therefore, require measurement of the transported analyte in different compartments. The assay of S1P transporters is problematic because S1P is exported, but not imported, by SPNS2, which obviates measuring uptake of mass- or radio-labeled S1P into transporter-expressing cells.
# To assay for SPNS2 inhibitor hits, we took advantage of the growth inhibitory effects of excessive levels of phosphorylated Long Chain Base (phospho-LCB) levels on the budding yeast, S. cerevisiae (Kharel Y, et al. Saccharomyces cerevisiae as a platform for assessing sphingolipid lipid kinase inhibitors. PLoS One 13, e0192179 (2018) PMC5908134). Yeast lack the desaturase that converts dihydroceramide to ceramide and, therefore, have neither sphingosine nor S1P. Rather, yeast have the reduced form, dihydrosphingosine, and the 4-hydroxyl analog, phytosphingosine and their respective phosphates. Like all eukaryotes, the yeast synthesizes (via LCB kinases (SphKs)) and degrades (via phospho-LCB lyase and phosphatase) phospho-LCBs, (dhS1P, phytoS1P). Yeast lack phospho-LCB transporters such as SPNS2, which are found only in vertebrates. To assess inhibition of SPNS2 in vitro, we used a strain of S. cerevisiae wherein expression of a mammalian SphK and human SPNS2 were forced. SPNS2 inhibitors decrease the growth of this strain. Table 2 below presents in vitro inhibition data against SPNS2 for exemplary compounds, presented here as their pharmaceutical salts, of the disclosure (A≤2 μM, B>2 μM).
row,pIC50,Structure (SMILES)
1,< 5.70,"CCCCCO/N=C(\C)c1ccc(-c2noc([C@@H]3CCN(C(=N)N)C3)n2)cc1 [Compound 40l, (R)-3-(3-(4-(1-((pentyloxy)imino)ethyl)phenyl)-1,2,4-oxadiazol-5-yl)pyrrolidine-1-carboximidamide hydrochloride]"
2,< 5.70,"C/C(=N\OCc1ccccc1)c1ccc(-c2noc([C@@H]3CCNC3)n2)cc1 [Compound 38g, (R)-1-(4-(5-(pyrrolidin-3-yl)-1,2,4-oxadiazol-3-yl)phenyl)ethan-1-one O-benzyl oxime hydrochloride]"
3,< 5.70,"C/C(=N\OCc1ccc(-c2ccccc2)cc1)c1ccc(-c2noc([C@@H]3CCNC3)n2)cc1 [Compound 38d, (R)-1-(4-(5-(pyrrolidin-3-yl)-1,2,4-oxadiazol-3-yl)phenyl)ethan-1-one O-([1,1′-biphenyl]-4-ylmethyl) oxime hydrochloride]"
4,< 5.70,"C/C(=N\OCc1ccc(F)cc1)c1ccc(-c2noc([C@@H]3CCN(C(=N)N)C3)n2)cc1 [Compound 40m, (R)-3-(3-(4-(1-(((4-fluorobenzyl)oxy)imino)ethyl)phenyl)-1,2,4-oxadiazol-5-yl)pyrrolidine-1-carboximidamide hydrochloride]"
5,< 5.70,"C/C(=N\OCc1ccc(C(F)(F)F)cc1)c1ccc(-c2noc([C@@H]3CCN(C(=N)N)C3)n2)cc1 [Compound 40c, (R)-3-(3-(4-(1-(((4-(trifluoromethyl)benzyl)oxy)imino)ethyl)phenyl)-1,2,4-oxadiazol-5-yl)pyrrolidine-1-carboximidamide hydrochloride]"
6,< 5.70,"CCCCCCCCNC(=O)c1ccc(-c2noc([C@@H]3CCNC3)n2)cc1 [Compound 38p, (R)—N-octyl-4-(5-(pyrrolidin-3-yl)-1,2,4-oxadiazol-3-yl)benzamide hydrochloride]"
7,< 5.70,"CCCCCCCO/N=C(\C)c1ccc(-c2noc([C@@H]3CCNC3)n2)cc1 [Compound 38i, hydrochloride]"

# More lines, now with the values behind:
row,Structure (SMILES),pIC50
1,"c1cc(N2CCOCC2)ncc1-c1noc([C@@H]2CCNC2)n1 [Compound 13d, (R)-4-(5-(5-(pyrrolidin-3-yl)-1,2,4-oxadiazol-3-yl)pyridin-2-yl)morpholine hydrochloride]",< 5.70
2,"CCCCCCCOc1ccc2cc(-c3noc([C@@H]4CCNC4)n3)ccc2c1 [Compound 5aa, (R)-3-(6-(heptyloxy)naphthalen-2-yl)-5-(pyrrolidin-3-yl)-1,2,4-oxadiazole hydrochloride]",≥ 5.70
3,"N=C(N)N1CC(c2nc(-c3ccc(OCCCc4ccccc4)cc3)no2)C1 [Compound 15j, 3-(3-(4-(3-phenylpropoxy)phenyl)-1,2,4-oxadiazol-5-yl)azetidine-1-carboximidamide hydrochloride]",< 5.70
4,"CCCCCCCCCCc1ccc(-c2noc(C[C@@H]3CCNC3)n2)cc1 [Compound 5p, (S)-3-(4-decylphenyl)-5-(pyrrolidin-3-ylmethyl)-1,2,4-oxadiazole 2,2,2-trifluoroacetate]",≥ 5.70
5,"Clc1ccccc1Nc1ccc(-c2noc([C@@H]3CCNC3)n2)cn1 [Compound 13e, (R)—N-(2-chlorophenyl)-5-(5-(pyrrolidin-3-yl)-1,2,4-oxadiazol-3-yl)pyridin-2-amine hydrochloride]",< 5.70
6,"CCCCc1ccc(Nc2ccc(-c3noc([C@@H]4CCN(C(=N)N)C4)n3)cn2)cc1 [Compound 15i, (R)-3-(3-(6-((4-butylphenyl)amino)pyridin-3-yl)-1,2,4-oxadiazol-5-yl)pyrrolidine-1-carboximidamide hydrochloride]",< 5.70
7,"CCCCCCCCCCc1ccc(-c2noc([C@@H]3CCCNC3)n2)cc1 [Compound 5h, (R)-3-(3-(4-decylphenyl)-1,2,4-oxadiazol-5-yl)piperidin-1-ium 2,2,2-trifluoroacetate]",< 5.70
8,"CCCCCCCCCCc1ccc(-c2noc([C@H]3CCCN(C(=N)N)C3)n2)cc1 [Compound 7f, (S)-amino(3-(3-(4-decylphenyl)-1,2,4-oxadiazol-5-yl)piperidin-1-yl)methaniminium chloride]",≥ 5.70
9,"CCCCCCCCOc1ccc(-c2noc([C@@H]3CCCN(C(=N)N)C3)n2)cc1C(F)(F)F [Compound 23d, (R)-3-(3-(4-(octyloxy)-3-(trifluoromethyl)phenyl)-1,2,4-oxadiazol-5-yl)piperidine-1-carboximidamide hydrochloride]",< 5.70
10,"N=C(N)N1CCC[C@@H](c2nc(-c3ccc(OCc4ccc(C(F)(F)F)cc4)c(C(F)(F)F)c3)no2)C1 [Compound 23h, (R)-3-(3-(3-(trifluoromethyl)-4-((4-(trifluoromethyl)benzyl)oxy)phenyl)-1,2,4-oxadiazol-5-yl)piperidine-1-carboximidamide hydrochloride]",< 5.70
11,"CCCCCCCCCc1ccc(-c2noc(C3CN(C(=N)N)C3)n2)cc1C(F)(F)F [Compound 30a, 3-(3-(4-nonyl-3-(trifluoromethyl)phenyl)-1,2,4-oxadiazol-5-yl)azetidine-1-carboximidamide hydrochloride]",≥ 5.70
12,"CCCCCCCCCCc1ccc(-c2noc([C@H]3CCCNC3)n2)cc1 [Compound 5f, (S)-3-(3-(4-decylphenyl)-1,2,4-oxadiazol-5-yl)piperidin-1-ium 2,2,2-trifluoroacetate]",< 5.70
13,"CCCCCCCCCCc1ccc(-c2noc(C[C@@H]3CCN(C(=N)N)C3)n2)cc1C(F)(F)F [Compound 30g, (S)-3-((3-(4-decyl-3-(trifluoromethyl)phenyl)-1,2,4-oxadiazol-5-yl)methyl)pyrrolidine-1-carboximidamide hydrochloride]",< 5.70
14,"N=C(N)N1CC[C@@H](c2nc(-c3ccc(Nc4ccccc4Cl)nc3)no2)C1 [Compound 15e, (R)-3-(3-(6-((2-chlorophenyl)amino)pyridin-3-yl)-1,2,4-oxadiazol-5-yl)pyrrolidine-1-carboximidamide hydrochloride]",< 5.70
15,"CCCCCCCCCCc1ccc(-c2noc(C[C@@H]3CCCN(C(=N)N)C3)n2)cc1 [Compound 7q, (S)-3-((3-(4-decylphenyl)-1,2,4-oxadiazol-5-yl)methyl)piperidine-1-carboximidamide 2,2,2-trifluoroacetate]",≥ 5.70
16,"c1ccc(CCCOc2ccc(-c3noc(C4CNC4)n3)cc2)cc1 [Compound 13j, 5-(azetidin-3-yl)-3-(4-(3-phenylpropoxy)phenyl)-1,2,4-oxadiazole hydrochloride]",< 5.70
17,"CCCCCCCCCCc1ccc(-c2noc(C3CN(C(=N)N)C3)n2)cc1C(F)(F)F [Compound 30b, 3-(3-(4-decyl-3-(trifluoromethyl)phenyl)-1,2,4-oxadiazol-5-yl)azetidine-1-carboximidamide hydrochloride]",≥ 5.70
18,"CCCCCCCCCc1ccc(-c2noc([C@@H]3CCN(C(=N)N)C3)n2)cc1 [Compound 7xb, (R)-3-(3-(4-nonylphenyl)-1,2,4-oxadiazol-5-yl)pyrrolidine-1-carboximidamide hydrochloride]",≥ 5.70
19,"CCCCCCCCCCCc1ccc(-c2noc([C@@H]3CCCN(C(=N)N)C3)n2)cc1 [Compound 7ya, (R)-3-(3-(4-undecylphenyl)-1,2,4-oxadiazol-5-yl)piperidine-1-carboximidamide hydrochloride]",≥ 5.70
20,"CCCCCCCCCOc1ccc(-c2noc(C3CN(C(=N)N)C3)n2)cc1C(F)(F)F [Compound 23b, 3-(3-(4-(nonyloxy)-3-(trifluoromethyl)phenyl)-1,2,4-oxadiazol-5-yl)azetidine-1-carboximidamide hydrochloride]",≥ 5.70

# Source: patent publication US12590083B2, “Inhibitors of spinster homolog 2 (SPNS2) for use in therapy” (University of Virginia Patent Foundation, priority 2019, dated 2026)
